From patent US10889555B2, “Sulfonamide compound or salt thereof” (Taiho Pharmaceutical Co., Ltd., priority 2016, dated 2021)
Like-named read-outs stand apart in the source and are kept apart here.

How the values were obtained:
[1] = target: Human RNR (human M1 subunit and human M2 subunit) (Homo sapiens (Human), UniProt P23921); assay: Human RNR inhibition effect (formation of dCDP from CDP, HPLC); assay type: biochemical
Method: The inhibitory activity against the ribonucleotide reduction reaction (hereinafter referred to as RNR reaction) of the test compound was determined by measuring the formation of deoxycytidine diphosphate (hereinafter referred to as dCDP) from cytidine diphosphate (hereinafter referred to as CDP) by the following method.
Human M1 subunit and human M2 subunit (mutant lacking amino terminal 59 amino acids), which are fused a histidine tag at the amino terminus, are overexpressed in Escherichia coli and are solubilized after collection, and histidine tagged human M1 and M2 proteins were purified on a nickel chelate column.
First, test compounds were serially diluted with DMSO. Next, human M1 protein and human M2 protein were added to an aqueous albumin solution derived from 0.02% fetal bovine serum, a DMSO solution of the compound of the present invention or the control DMSO solution (final concentration of DMSO was 1%) was added, and the mixture was allowed to stand for 20 minutes. Thereafter, the reaction buffer [50 mM HEPES buffer (pH 7.2) at the final concentration, 4 mM magnesium acetate at the final concentration, 100 mM potassium chloride at the final concentration, 6 mM dithiothreitol at the final concentration, 2 mM adenosine triphosphate at the final concentration, 0.24 mM nicotinamide adenine dinucleotide phosphate at final concentration] and 10 μM CDP at the final concentration were added and incubated at 37° C. for 30 minutes to perform RNR reaction. Immediately after the reaction, the reaction was stopped by heating at 100° C. for 15 minutes, followed by centrifugation at 10,000 rpm for 10 minutes. After the centrifugation, a portion (5 μL) of the resulting supernatant was analyzed with a high performance liquid chromatography (Shimadzu Corporation, Prominence) using Shim-pack XR-ODS (manufactured by Shimadzu GLC Co., 3.0×100 mm).

[2] = tested on: HCC 1806 cells; assay: Cell proliferation inhibitory effect on human breast cancer cell line (crystal violet, 72 hours); assay type: cell-based; conditions: read-out: Cell growth suppression IC50
Method in brief: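 Cells were seeded at 2,000/well in RPMI-1640 with 10% FBS and grown 1 day, then exposed to compound for 72 h at 37° C, 5% CO2. After glutaraldehyde fixation and 0.05% crystal violet staining, extracted dye was read at 540 nm. IC50 (μM) came from growth inhibition relative to untreated and cell-free wells.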

[3] = tested on: various cancer cell lines as described in Table 21; assay: Cell proliferation inhibitory effect on human cancer-derived cancer cell lines (method of Test Example 2); assay type: cell-based
Method: Human derived breast cancer cell line HCC 1806 cells were daily passaged at a cell density not exceeding 80% in ATCC recommended Roswell Park Memorial Institute medium (RPMI-1640) containing 10% fetal bovine serum (FBS). In order to start the test of cell proliferation inhibitory activity, HCC 1806 cells were suspended in the above medium, after seeing at 180 μL in each well of a 96-well flat bottom plate so that the number of cells per well was 2,000, the cells were cultured at 37° C. for 1 day in an incubator containing 5% carbon dioxide gas. On the next day, the test compound was dissolved in DMSO, and 20 μL of a drug additive solution diluted serially with distilled water to 10 times of the final concentration was added to each well of the culture plate of the cells, and the cells were cultured at 37° C. for 72 hours in an incubator containing 5% carbon dioxide gas. After culturing for 72 hours, 20 μL of glutaraldehyde was added to each well and allowed to stand for 30 minutes, then the plate was washed 10 times with water and was dried. 100 μL of a stain solution (0.05% crystal violet in a 20% methanol solution) was added to each well and allowed to stand for 30 minutes, then the plate was washed 10 times with water and was dried. 100 μL of an extract solution (0.1 N NaH2PO4: 100% ethanol=1:1) was added to each well and mixed, and the mixture was measured at a wavelength of 540 nm using a plate reader (MTP-450 manufactured by Corona Electric Co., Ltd.). The growth inhibition rate was calculated from the following formula, and the concentration (IC50 (μM)) of a test compound inhibiting 50% was determined. Growth inhibition rate (%)={(C−B)−(T−B)}/(C−B)×100
According to the method of Test Example 2, the cell proliferation inhibitory effect on various cancer cell lines as described in Table 21 was evaluated.

[4] = human M1 and M2 subunits, formation of dCDP from CDP, read-out: RNR Enzyme inhibitory activity IC50
[5] = A673, Ewing's sarcoma, 2000 cell/well, read-out: cell proliferation inhibitory effect, A673
[6] = A2780, Ovarian Cancer, 2000 cell/well, read-out: cell proliferation inhibitory effect, A2780
[7] = ACHN, Kidney Cancer, 2000 cell/well, read-out: cell proliferation inhibitory effect, ACHN
[8] = CFPAC-1, Pancreatic Cancer, 2000 cell/well, read-out: cell proliferation inhibitory effect, CFPAC-1
[9] = DU-145, DU145, Prostate Cancer, 5000 cell/well, read-out: cell proliferation inhibitory effect, DU145
[10] = GB-1, Glioblastoma, 3000 cell/well, read-out: cell proliferation inhibitory effect, GB-1
[11] = HCT-116, HCT116, Colorectal Cancer, 1000 cell/well, read-out: cell proliferation inhibitory effect, HCT116
[12] = HLE, Liver Cancer, 3000 cell/well, read-out: cell proliferation inhibitory effect, HLE
[13] = MSTO-211H, Mesothelioma, 6000 cell/well, read-out: cell proliferation inhibitory effect, MSTO-211H
[14] = NCI-H460, Lung Cancer, 1000 cell/well, read-out: cell proliferation inhibitory effect, NCI-H460
[15] = NCI-H2170, Lung Cancer, 5000 cell/well, read-out: cell proliferation inhibitory effect, NCI-H2170
[16] = NCI-H2228, Lung Cancer, 5000 cell/well, read-out: cell proliferation inhibitory effect, NCI-H2228
[17] = NUGC-3, Stomach Cancer, 2000 cell/well, read-out: cell proliferation inhibitory effect, NUGC-3
[18] = RPMI7932, Melanoma, 4000 cell/well, read-out: cell proliferation inhibitory effect, RPMI7932

Chain of Human RNR (human M1 subunit and human M2 subunit) (P23921 whole entry): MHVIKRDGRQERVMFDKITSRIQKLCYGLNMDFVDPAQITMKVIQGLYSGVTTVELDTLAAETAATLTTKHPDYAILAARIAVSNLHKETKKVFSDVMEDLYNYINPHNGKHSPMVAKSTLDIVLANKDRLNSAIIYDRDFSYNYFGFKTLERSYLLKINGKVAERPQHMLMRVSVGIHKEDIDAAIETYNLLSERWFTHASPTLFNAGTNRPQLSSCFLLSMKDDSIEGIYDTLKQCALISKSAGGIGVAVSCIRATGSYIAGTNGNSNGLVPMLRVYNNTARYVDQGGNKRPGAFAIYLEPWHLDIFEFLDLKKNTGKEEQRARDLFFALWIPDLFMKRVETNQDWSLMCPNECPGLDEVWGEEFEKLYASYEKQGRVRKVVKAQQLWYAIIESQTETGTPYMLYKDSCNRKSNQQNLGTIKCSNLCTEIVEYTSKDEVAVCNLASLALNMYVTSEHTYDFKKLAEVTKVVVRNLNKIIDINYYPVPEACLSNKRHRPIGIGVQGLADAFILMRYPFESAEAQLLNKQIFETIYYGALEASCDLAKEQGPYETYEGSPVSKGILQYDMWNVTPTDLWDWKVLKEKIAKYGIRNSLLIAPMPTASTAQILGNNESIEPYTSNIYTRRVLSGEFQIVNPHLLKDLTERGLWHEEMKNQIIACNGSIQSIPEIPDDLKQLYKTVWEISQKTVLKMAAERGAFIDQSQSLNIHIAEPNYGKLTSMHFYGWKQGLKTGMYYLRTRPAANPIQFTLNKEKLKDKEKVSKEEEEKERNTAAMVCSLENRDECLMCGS

SMILES	IC50 ([1]; human M1 and M2 proteins, 10 μM CDP, 37° C. for 30 minutes, read-out: IC50 (concentration inhibiting the RNR reaction by 50%))	IC50 [1, 4]	IC50 ([2]; Homo sapiens, HCC1806, 72 h)	IC50 [3, 5]	IC50 [3, 6]	IC50 [3, 7]	IC50 [3, 8]	IC50 [3, 9]	IC50 [3, 10]	IC50 [3, 11]	IC50 [3, 12]	IC50 [3, 13]	IC50 [3, 14]	IC50 [3, 15]	IC50 [3, 16]	IC50 [3, 17]	IC50 [3, 18]	IC50 [2]
Cc1ccc(S(=O)(=O)NC(Cc2ccccc2)c2nnc(S)o2)cc1 (stereo not shown) [Comparative Example 1, reference compound]	43 µM																	
[2H]C([2H])([2H])C1(O)CCOc2c(S(=O)(=O)N[C@H](c3n[nH]c(=O)o3)[C@H](C)c3c(F)ccc(C)c3C)ccc(Cl)c21 (single isomer, unassigned) [Example 200A]				0.18 µM	0.13 µM	0.13 µM	0.17 µM	0.17 µM	0.37 µM	0.22 µM	0.14 µM	0.17 µM	0.13 µM	0.49 µM	0.5 µM	0.27 µM	0.43 µM	0.05 µM
Cc1ccc(F)c([C@@H](C)[C@H](NS(=O)(=O)c2ccc(Cl)c3c2OCCC3O)c2n[nH]c(=O)o2)c1C (single isomer, unassigned) [Example 235A]				0.61 µM	0.4 µM	0.38 µM	0.35 µM	0.53 µM	1.12 µM	0.48 µM	0.42 µM	0.39 µM	0.35 µM	1.1 µM	0.88 µM	0.71 µM	1.23 µM	0.13 µM

The next lines start with results.

IC50 ([1]; human M1 and M2 proteins, 10 μM CDP, 37° C. for 30 minutes, read-out: IC50 (concentration inhibiting the RNR reaction by 50%))	IC50 [1, 4]	IC50 ([2]; Homo sapiens, HCC1806, 72 h)	SMILES	IC50 [3, 5]	IC50 [3, 6]	IC50 [3, 7]	IC50 [3, 8]	IC50 [3, 9]	IC50 [3, 10]	IC50 [3, 11]	IC50 [3, 12]	IC50 [3, 13]	IC50 [3, 14]	IC50 [3, 15]	IC50 [3, 16]	IC50 [3, 17]	IC50 [3, 18]	IC50 [2]
	0.12 µM	0.6 µM	Cc1ccc(F)c([C@@H](C)[C@H](NS(=O)(=O)c2ccc(C(F)(F)F)c3c2OCCC3(C)O)c2n[nH]c(=O)o2)c1C (single isomer, unassigned) [Example 225A]															
	0.24 µM		COc1cc(Cl)ccc1S(=O)(=O)N[C@H](c1n[nH]c(=O)o1)[C@H](C)c1c(F)ccc(-c2ccn(C)n2)c1C [Example 305, 4-chloro-N-((1S,2R)-2-(6-fluoro-2-methyl-3-(1-methyl-1H-pyrazol-3-yl)phenyl)-1-(5-oxo-4,5-dihydro-1,3,4-oxadiazol-2-yl)propyl)-2-methoxybenzenesulfonamide]															
		0.16 µM	Cc1ccc(F)c([C@@H](C)[C@H](NS(=O)(=O)c2ccc(Br)cc2C(N)=O)c2n[nH]c(=O)o2)c1C [Example 1, 5-bromo-2-(N-((1 S,2R)-2-(6-fluoro-2,3-dimethylphenyl)-1-(5-oxo-4,5-dihydro-1,3,4-oxadiazol-2-yl)propyl)sulfamoyl)benzamide]	0.92 µM	0.63 µM	0.68 µM	0.54 µM	0.73 µM	1.56 µM	0.75 µM	0.56 µM	0.65 µM	0.57 µM	1.41 µM	1.35 µM	1.12 µM	1.74 µM	
